Measured values reported in US12545685B2 (Daiichi Sankyo Company, Limited, priority 2011, dated 2026).
Counter-ions that a name gives are not always drawn.

These compounds were tested against T1, Mdm2/p53 binding (GST-Mdm2 / His-p53) (Homo sapiens, UniProt Q00987, L33E) (assay: Mdm2/p53 binding assay (HTRF, His-p53 and GST-Mdm2)). Details: His-p53 (aa 1-132) and GST-Mdm2 (aa 25-108, L33E) 6.25 nM each; 25°C, 1 hour; values given as ranges.
T1 construct: Mdm2 partial protein having Mdm2 amino acids at positions 25 to 108
Summary of the method: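 Binding was detected by HTRF (ex 320 nm, em 620/665 nm) after 1 h at 25 °C, using Eu-cryptate anti-GST and XL665 anti-His antibodies. The protein pair was GST-Mdm2 (residues 25–108, L33E) with His-p53 (residues 1–132), each 6.25 nM in the protein dilution. T/C used no-compound control and no-p53 background, and IC50 came from sigmoid fitting.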

T1 sequence (Q00987 25-108 L33E): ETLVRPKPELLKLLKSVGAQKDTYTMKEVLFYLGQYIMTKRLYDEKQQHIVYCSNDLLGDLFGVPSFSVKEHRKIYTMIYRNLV

IC50 [nM] | SMILES
1 to 50 | CC1(C)CCC2(CC1)N[C@@H](C(=O)N[C@H]1CC[C@](O)(CS(C)(=O)=O)CC1)[C@H](c1ccnc(Cl)c1F)[C@]21C(=O)Nc2cc(Cl)ccc21 [Example 87, (3′R, 4′S,5′R)-6″-chloro-4′-(2-chloro-3-fluoropyridin-4-yl)-N-{cis-4-hydroxy-4-[(methylsulfonyl)methyl]cyclohexyl}-4,4-dimethyl-2″-oxo-1″,2′-dihydrodispiro[cyclohexane-1,2′-pyrrolidine-3′,3″-indole]-5′-carboxamide]
1 to 50 | C[C@@H](O)[C@@H]1CC[C@@H](NC(=O)[C@@H]2NC3(CCC(C)(C)CC3)[C@@]3(C(=O)Nc4cc(Cl)ncc43)[C@H]2c2ccnc(Cl)c2F)CO1 [Example 192, 6″-Chloro-4′-(2-chloro-3-fluoropyridin-4-yl)-N-{(3R,6S)-6-[(1R)-1-hydroxyethyl]tetrahydro-2H-pyran-3-yl}-4,4-dimethyl-2″-oxo-1″,2″-dihydrodispiro[cyclohexane-1,2′-pyrrolidine-3′,3″-pyrrolo[3,2-c]pyridine]-5′-carboxamide]
50 to 100 | O=C(N[C@@H]1CC[C@@H](CO)OC1)[C@@H]1NC2(CC(CF)(CF)C2)[C@@]2(C(=O)Nc3cc(Cl)ccc32)[C@H]1c1ccnc(Cl)c1F [Example 91, (3′R, 4′S,5′R)-6″-chloro-4′-(2-chloro-3-fluoropyridin-4-yl)-3,3-bis(fluoromethyl)-N-[(3R,6S)-6-(hydroxymethyl)tetrahydro-2H-pyran-3-yl]-2″-oxo-1″,2″-dihydrodispiro[cyclobutane-1,2′-pyrrolidine-3′,3″-indole]-5′-carboxamide]
50 to 100 | CC(=O)Nc1cc(Cl)cc([C@H]2[C@H](C(=O)N[C@H]3CC[C@H](O)CC3)NC3(CCC(C)(C)CC3)[C@@]23C(=O)Nc2cc(Cl)ccc23)c1 [Example 37, (3′R, 4′R, S′R)-4′-(3-acetamide-5-chlorophenyl)-6″-chloro-N-(trans-4-hydroxycyclohexyl)-4,4-dimethyl-2″-oxo-1″,2″-dihydrodispiro[cyclohexane-1,2′-pyrrolidine-3′,3″-indole]-5′-carboxamide]
1 to 50 | CC(=O)N(CCO)C[C@@H]1CC[C@@H](NC(=O)[C@@H]2NC3(CCC(C)(C)CC3)[C@@]3(C(=O)Nc4cc(Cl)ccc43)[C@H]2c2ccnc(Cl)c2F)CO1 [Example 44]
1 to 50 | CNC(=O)[C@@H]1CC[C@@H](NC(=O)[C@@H]2NC3(CCC(C)(C)CC3)[C@@]3(C(=O)Nc4nc(Cl)ccc43)[C@H]2c2ccnc(Cl)c2F)CO1 [Example 101, (3′R, 4′S,5′R)-6″-chloro-4′-(2-chloro-3-fluoropyridin-4-yl)-4,4-dimethyl-N-[(3R,6S)-6-(methylcarbamoyl)tetrahydro-2H-pyran-3-yl]-2″-oxo-1″,2″-dihydrodispiro[cyclohexane-1,2′-pyrrolidine-3′,3″-pyrrolo[2,3-b]pyridine]-5′-carboxamide]
1 to 50 | CC1(C)CCC2(CC1)N[C@@H](C(=O)N[C@H]1CC[C@H](N3CC(O)C3)CC1)[C@H](c1ccnc(Cl)c1F)[C@]21C(=O)Nc2cc(Cl)ccc21 [Example 72, (3′R, 4′S,5′R)-6″-chloro-4′-(2-chloro-3-fluoropyridin-4-yl)-N-[trans-4-(3-hydroxyazetidine-1-yl)cyclohexyl]-4,4-dimethyl-2″-oxo-1″,2″-dihydrodispiro[cyclohexane-1,2′-pyrrolidine-3′,3″-indole]-5′-carboxamide]
50 to 100 | O=C(NCCF)[C@@H]1CC[C@@H](NC(=O)[C@@H]2NC3(CC(CF)(CF)C3)[C@@]3(C(=O)Nc4cc(Cl)ccc43)[C@H]2c2cccc(Cl)c2F)CO1 [Example 138, (3′R, 4′S,5′R)-6″-chloro-4′-(3-chloro-2-fluorophenyl)-N-{(3R,6S)-6-[(2-fluoroethyl)carbamoyl]tetrahydro-2H-pyran-3-yl}-3,3-bis(fluoromethyl)-2″-oxo-1″,2″-dihydrodispiro[cyclobutane-1,2′-pyrrolidine-3′,3″-indole]-5′-carboxamide]
1 to 50 | COCCN(C)C(=O)[C@@H]1CC[C@@H](NC(=O)[C@@H]2NC3(CCC(C)(C)CC3)[C@@]3(C(=O)Nc4cc(Cl)ccc43)[C@H]2c2ccnc(Cl)c2F)CO1 [Example 127, (3′R, 4′S,5′R)-6″-chloro-4′-(2-chloro-3-fluoropyridin-4-yl)-N-{(3R,6S)-6-[(2-methoxyethyl)(methyl)carbamoyl]tetrahydro-2H-pyran-3-yl}-4,4-dimethyl-2″-oxo-1″,2″=dihydrodispiro[cyclohexane-1,2′-pyrrolidine-3′,3″-indole]-5′-carboxamide]
1 to 50 | CC1(C)CCC2(CC1)N[C@@H](C(=O)N[C@H]1CC[C@@](O)(CO)CC1)[C@H](c1cccc(Cl)c1F)[C@]21C(=O)Nc2cc(Cl)ccc21 [Example 33, (3′R, 4′S,5′R)-6″-chloro-4′-(3-chloro-2-fluorophenyl)-N-[trans-4-hydroxy-4-(hydroxymethyl)cyclohexyl]-4,4-dimethyl-2″-oxo-1″,2″-dihydrodispiro[cyclohexane-1,2′-pyrrolidine-3′,3″-indole]-5′-carboxamide]
1 to 50 | CC1(C)CCC2(CC1)N[C@@H](C(=O)N[C@H]1C[C@H](CO)C1)[C@H](c1ccnc(Cl)c1F)[C@]21C(=O)Nc2cc(Cl)ccc21 [Example 119, (3′R,4′S,5′R)-6″-chloro-4′-(2-chloro-3-fluoropyridin-4-yl)-N-[trans-3-(hydroxymethyl)cyclobutyl]-4,4-dimethyl-2″-oxo-1″,2″-dihydrodispiro[cyclohexane-1,2′-pyrrolidine-3′,3″-indole]-5′-carboxamide]
1 to 50 | CN(C)C(=O)[C@H]1CC[C@H](NC(=O)[C@@H]2NC3(CC(CF)(CF)C3)[C@@]3(C(=O)Nc4cc(Cl)ccc43)[C@H]2c2cccc(Cl)c2F)CC1 [Example 148, (3′R, 4′S,5′R)-6″-chloro-4′-(3-chloro-2-fluorophenyl)-N-[trans-4-(dimethylcarbamoyl)cyclohexyl]-3,3-bis(fluoromethyl)-2″-oxo-1″,2″-dihydrodispiro[cyclobutane-1,2′-pyrrolidine-3′,3″-indole]-5′-carboxamide]
1 to 50 | COCCNC(=O)[C@@H]1CC[C@@H](NC(=O)[C@@H]2NC3(CC(CF)(CF)C3)[C@@]3(C(=O)Nc4cc(Cl)ccc43)[C@H]2c2cccc(Cl)c2F)CO1 [Example 142, (3′R, 4′S,5′R)-6″-chloro-4′-(3-chloro-2-fluorophenyl)-3,3-bis(fluoromethyl)-N-{(3R,6S)-6-[(2-methoxyethyl)carbamoyl]tetrahydro-2H-pyran-3-yl}-2″-oxo-1″,2″-dihydrodispiro[cyclobutane-1,2′-pyrrolidine-3′,3″-indole]-5′-carboxamide]
1 to 50 | CC1(C)CCC2(CC1)N[C@@H](C(=O)N[C@@H]1CC[C@@H](C(=O)NCCF)OC1)[C@H](c1ccnc(Cl)c1F)[C@]21C(=O)Nc2cc(Cl)ccc21 [Example 126, (3′R, 4′S,5′R)-6″-chloro-4′-(2-chloro-3-fluoropyridin-4-yl)-N-{(3R,6S)-6-[{2-fluoroethyl}carbamoyl]tetrahydro-2H-pyran-3-yl}-4,4-dimethyl-2″-oxo-1″,2″-dihydrodispiro[cyclohexane-1,2′-pyrrolidine-3′,3″-indole]-5′-carboxamide]
50 to 100 | CC1(C)CCC2(CC1)N[C@@H](C(=O)N[C@@H]1CC[C@@H](CNS(C)(=O)=O)OC1)[C@H](c1ccnc(Cl)c1F)[C@]21C(=O)Nc2cc(Cl)ccc21 [Example 166, (3′R, 4′S,5′R)-6″-chloro-4′-(2-chloro-3-fluoropyridin-4-yl)-4,4-dimethyl-N-[(3R,6S)-6-{[(methylsulfonyl)amino]methyl}tetrahydro-2H-pyran-3-yl]-2″-oxo-1″,2″-dihydrodispiro[cyclohexane-1,2′-pyrrolidine-3′,3″-indole]-5′-carboxamide]
50 to 100 | CC1(C)CCC2(CC1)N[C@@H](C(=O)N[C@H]1CC[C@H](c3nncs3)CC1)[C@H](c1ccnc(Cl)c1F)[C@]21C(=O)Nc2cc(Cl)ccc21 [Example 155, (3′R, 4′S,5′R)-6″-chloro-4′-(2-chloro-3-fluoropyridin-4-yl)-4,4-dimethyl-2″-oxo-N-[trans-4-(1,3,4-thiadiazol-2-yl)cyclohexyl]-1″,2″-dihydrodispiro[cyclohexane-1,2′-pyrrolidine-3′,3″-indole]-5′-carboxamide]
50 to 100 | COCc1nnc([C@H]2CC[C@H](NC(=O)[C@@H]3NC4(CCC(C)(C)CC4)[C@@]4(C(=O)Nc5cc(Cl)ccc54)[C@H]3c3ccnc(Cl)c3F)CC2)o1 [Example 159]
50 to 100 | CC1(C)CCC2(CC1)N[C@@H](C(=O)N[C@@H]1CC[C@@H](c3ncon3)OC1)[C@H](c1ccnc(Cl)c1F)[C@]21C(=O)Nc2cc(Cl)ccc21 [Example 64, (3′R, 4′S,5′R)-6″-chloro-4′-(2-chloro-3-fluoropyridin-4-yl)-4,4-dimethyl-N-[(3R,6S)-6-(1,2,4-oxadiazol-3-yl)tetrahydro-2H-pyran-3-yl]-2″-oxo-1″,2″-dihydrodispiro[cyclohexane-1,2′-pyrrolidine-3′,3″-indole]-5′-carboxamide]
1 to 50 | CC1(C)CCC2(CC1)N[C@@H](C(=O)N[C@@H]1CC[C@@H](C(N)=O)OC1)[C@H](c1ccnc(Cl)c1F)[C@]21C(=O)Nc2cc(Cl)ccc21 [Example 193, (3′R, 4′S, S′R)—N-[(3R,6S)-6-carbamoyltetrahydro-2H-pyran-3-yl]-6″-chloro-4′-(2-chloro-3-fluoropyridin-4-yl)-4,4-dimethyl-2″-oxo-1″,2″-dihydrodispiro[cyclohexane-1,2′-pyrrolidine-3′,3″-indole]-5′-carboxamide hydrochloride water/2-propanol (IPA) solvate]
